Type in all cases: in vivo
Assay [1] has as its system Experimental Autoimmune Encephalomyelitis (EAE). As to the kind of experiment: Experimental Autoimmune Encephalomyelitis (EAE), progressive mouse model of MOG-driven inflammation. As for the experimental part: (§1) We confirmed the activity and dose-dependence of traditional GA regimens using daily GA injections (i.p.) at 0.2 or 2.0 mg/day beginning at disease onset in EAE (arrows; N=10/group). As discussed above, EAE is a progressive mouse model of MOG-driven inflammation that results in severe paralysis over several weeks; higher clinical scores indicate more severe disease (FIG. 3, panel A). Next we formulated GA-MNs (with sucrose stabilizer) such that a single MN patch contained 0.2 mg—confirmed by dissolution and fluorimetry—to match the ineffective injected GA dose in FIG. 3 panel A. The actual amount of GA delivered from MNs is likely less than the total GA loading due to accumulation on the backing. Mice were then treated at the ear on days 5, 10, 15, and 20 with GA-MNs or control MNs lacking GA (“Sucrose MN”). […] To analyze this approach in another inflammation model driven by a different myelin peptide—PLP, SJL/J mice were induced with relapsing-remitting EAE (RR-EAE) then treated on days 6, 9, and 12 (N=15/group) using equivalent doses 0.2 mg/treatment (tx) group of GA by MN or soluble i.p. injection.

The subject of assay [2] is relapsing-remitting EAE (RR-EAE). As to the kind of experiment: Relapsing-remitting EAE (RR-EAE) driven by PLP in SJL/J mice. The settings on record: 0.2 mg/treatment on days 6, 9, 12, by MN or soluble i.p. injection; for RR-EAE mean score: measured at the last treatment day. As for the experimental part:
as §1

Assay [3] concerns lymphocytes, TREG, CD45+CD4+ T cells. As to the kind of experiment: Flow cytometry of cervical LNs, spleen and spinal cord in RR-EAE mice. The settings on record: Day 10 and Day 12, relative to untreated mice with RR-EAE. The protocol:
To analyze this, we analyzed whether GA-MN could increase TREG, and, that because of the decreased clinical scores in FIG. 3, these effects might be evident in cervical LNs. Using analogous regimens to FIG. 3 panel D (RR-EAE), mice were euthanized at Day 10 and Day 12, then cervical LNs and spleen were assessed by flow cytometry. Relative to untreated mice with RR-EAE, GA-MN increased both the number of lymphocytes (FIG. 4 panel A) and the number of TREG (FIG. 4 panel B); these effects were not observed in mice treated with soluble GA. […] At day 12, we assessed the number of lymphocytes and activated CD4^+ T cells, as indicated by staining for CD45^+/CD4^+ cells. Though the group sizes (N=5) were insufficient for statistical significance, we observed a trend that GA-MN decreased the number of lymphocytes the spinal cord (FIG. 5 panel A), as well as the number of infiltrating CD45^+CD4^+ cells (FIG. 5 panels B and C). The data in these Examples indicate GA-MNs deliver GA through the skin of mice at doses that provide efficacy in EAE and RR-EAE.
In general terms: Flow cytometry measures light scatter and fluorescence of single cells or particles in a stream.

These results are taken from patent US20210000907A1, “MICRONEEDLE-MEDIATED DELIVERY OF TOLEROGENIC IMMUNOTHERAPEUTICS” (University of Maryland, College Park, priority 2017, published 2021).

Turning to glatiramer acetate [GA], the “EAE clinical score, effect of injected GA” value in assay [1] (daily GA injections i.p. 0.2 mg/day beginning at disease onset) is recorded as “ineffective”. In addition, the “EAE clinical score, dose dependence of daily GA dosing” value in assay [1] (daily GA injections i.p. at 0.2 or 2.0 mg/day beginning at disease onset) is given as “dose-dependent effects”. In assay [2] (listed as injectable GA), the RR-EAE disease progression entry was “does not” and the RR-EAE mean score result is “does not”. Also, in assay [2] (listed as soluble GA), the RR-EAE disease progression result is on record as “no effect” and the RR-EAE mean score result was “no effect”. Besides, in assay [3], the “Number of TREG in cervical LNs” value was “not observed” and the “Number of lymphocytes in cervical LNs” value is reported as “not observed”.
